Literature values, collected in US20110152382A1, “Composition of molecular elements for phosphorylase kinase inhibition” (priority 2009, published 2011).

Assays:
phosphorylase kinase [1] = test system: phosphorylase kinase
phosphorylase kinase [2] = conditions: previously reported by the inventor

Row | Molecule | anti-phosphorylase kinase activity (phosphorylase kinase [1]) | phosphorylase kinase activity in psoriatic skin (phosphorylase kinase [2])
1 | COc1cc(/C=C/C(=O)CC(=O)/C=C/c2ccc(O)c(OC)c2)ccc1O [curcumin, diferuloylmethane] | selective phosphorylase kinase inhibitor | suppression of phosphorylase kinase activity
2 | curcumin glucuronate | do not have anti-phosphorylase kinase activity | –
